{"source": "patent US20100273200A1", "about": "“In-Vitro Model of Blood-Brain Barrier, In-Vitro Model of Diseased Blood-Brain Barrier, and Drug Screening Method, Analysis Method for Functions of Diseased Blood-Brain Barrier, and Analysis Method for Pathogenesis Using the Same” (priority 2005, published 2010)", "tested_on": "ischemia-reperfusion BBB model", "experiment": "Effects of radical scavenger edaravone on ischemia-reperfusion BBB model (TEER and Na—F permeability)", "assay_type": "cell-based, rat", "conditions": "edaravone added at the end of the 6 h ischemia period; 3 h reperfusion; FIG. 10", "protocol": "TEER was measured with ENDOHM (manufactured by WPI). Then, the experiment on Na—F permeability was conducted.\n1/PSapper=1/PSmembrane+1/PStrans.\nFIG. 4 is a graph showing variation per day of transendothelial electrical resistance value measurement results of 7 coculture models prepared by the method shown in Example 4. FIG. 5 is a graph comparing transendothelial electrical resistance value measurement results among 7 coculture models prepared by the method shown in Example 4. Transendothelial Electrical Resistance (TEER) was measured with ENDOHM (manufactured by WPI). The electrical resistance value of each BBB model was measured from 2 to 7 days after model preparation. The TEER values of E00, E0A, and E0P were calculated by subtracting therefrom the electrical resistance value of only the membrane. The TEER values of EA0 ad EAP were calculated by subtracting therefrom the electrical resistance value of the membrane on which only the astrocytes were cultured. The TEER values of EP0 ad EPA were calculated by subtracting therefrom the electrical resistance value of the membrane on which only the pericytes were cultured. […]"}
{"compound": "CC1=NN(c2ccccc2)C(=O)C1", "note": "[edaravone]", "values": [{"measurement": "reduction in TEER attributed to ischemia-reperfusion (reduction in tight junction function)", "result": "significantly suppressed"}, {"measurement": "rise in Na—F permeability attributed to ischemia-reperfusion (reduction in tight junction function)", "result": "significantly suppressed"}]}
